{
  "source": "the NIST ThermoML archive (doi:10.1021/acs.jced.5b00114)",
  "test": "mn = molality of the nth substance listed, in mol/kg",
  "settings": "101 kPa, Liquid; for viscosity: Capillary tube (Ostwald / Ubbelohde) method; for mass density: Vibrating tube method",
  "note": "“And” between values parts separate entries of the source, which are not always exact repeats. Equal values may be shown once. Numbers after ± are expanded uncertainties.",
  "data": [
    {"compound": "Cc1ncc(CO)c(CO)c1O.Cl", "note": "[5-hydroxy-6-methyl-3,4-pyridinedimethanol hydrochloride] + O", "values": [
      {"measurement": "viscosity", "setting": "293.15 K, m1 = 0.0999", "result": "1.044 ± 0.022", "unit": "mPa·s"},
      {"measurement": "viscosity", "setting": "293.15 K, m1 = 0.1", "result": "1.044 ± 0.022", "unit": "mPa·s"},
      {"measurement": "viscosity", "setting": "293.15 K, m1 = 0.1008", "result": "1.044 ± 0.022", "unit": "mPa·s"},
      {"measurement": "viscosity", "setting": "293.15 K, m1 = 0.1992", "result": "1.084 ± 0.023", "unit": "mPa·s"},
      {"measurement": "viscosity", "setting": "293.15 K, m1 = 0.2016", "result": "1.085 ± 0.023", "unit": "mPa·s"},
      {"measurement": "viscosity", "setting": "293.15 K, m1 = 0.2025", "result": "1.085 ± 0.023", "unit": "mPa·s"},
      {"measurement": "viscosity", "setting": "293.15 K, m1 = 0.3", "result": "1.127 ± 0.024", "unit": "mPa·s"},
      {"measurement": "viscosity", "setting": "293.15 K, m1 = 0.3014", "result": "1.127 ± 0.024", "unit": "mPa·s"},
      {"measurement": "viscosity", "setting": "293.15 K, m1 = 0.3999", "result": "1.169 ± 0.025", "unit": "mPa·s"},
      {"measurement": "viscosity", "setting": "293.15 K, m1 = 0.4001", "result": "1.172 ± 0.025", "unit": "mPa·s"},
      {"measurement": "mass density", "setting": "293.15 K, m1 = 0.0999", "result": "1004.23 ± 1", "unit": "kg/m3"},
      {"measurement": "mass density", "setting": "293.15 K, m1 = 0.1", "result": "1004.23 ± 1", "unit": "kg/m3"},
      {"measurement": "mass density", "setting": "293.15 K, m1 = 0.1008", "result": "1004.28 ± 1", "unit": "kg/m3"},
      {"measurement": "mass density", "setting": "293.15 K, m1 = 0.1992", "result": "1010 ± 1", "unit": "kg/m3"},
      {"measurement": "mass density", "setting": "293.15 K, m1 = 0.2016", "result": "1010.1 ± 1 kg/m3 and 1010.09 ± 1 kg/m3"},
      {"measurement": "mass density", "setting": "293.15 K, m1 = 0.2025", "result": "1010.19 ± 1", "unit": "kg/m3"},
      {"measurement": "mass density", "setting": "293.15 K, m1 = 0.3", "result": "1015.66 ± 1 kg/m3 and 1015.67 ± 1 kg/m3"},
      {"measurement": "mass density", "setting": "293.15 K, m1 = 0.3014", "result": "1015.74 ± 1", "unit": "kg/m3"},
      {"measurement": "mass density", "setting": "293.15 K, m1 = 0.3999", "result": "1021.12 ± 1 kg/m3 and 1021.11 ± 1 kg/m3"},
      {"measurement": "mass density", "setting": "293.15 K, m1 = 0.4001", "result": "1021.16 ± 1", "unit": "kg/m3"},
      {"measurement": "viscosity", "setting": "303.15 K, m1 = 0.0999", "result": "0.829 ± 0.018", "unit": "mPa·s"},
      {"measurement": "viscosity", "setting": "303.15 K, m1 = 0.1", "result": "0.83 ± 0.017", "unit": "mPa·s"},
      {"measurement": "viscosity", "setting": "303.15 K, m1 = 0.1008", "result": "0.83 ± 0.018", "unit": "mPa·s"},
      {"measurement": "viscosity", "setting": "303.15 K, m1 = 0.1992", "result": "0.861 ± 0.018", "unit": "mPa·s"},
      {"measurement": "viscosity", "setting": "303.15 K, m1 = 0.2016", "result": "0.861 ± 0.018", "unit": "mPa·s"},
      {"measurement": "viscosity", "setting": "303.15 K, m1 = 0.2025", "result": "0.862 ± 0.018", "unit": "mPa·s"},
      {"measurement": "viscosity", "setting": "303.15 K, m1 = 0.3", "result": "0.894 ± 0.019 mPa·s and 0.893 ± 0.019 mPa·s"},
      {"measurement": "viscosity", "setting": "303.15 K, m1 = 0.3014", "result": "0.894 ± 0.019", "unit": "mPa·s"},
      {"measurement": "viscosity", "setting": "303.15 K, m1 = 0.3999", "result": "0.926 ± 0.019", "unit": "mPa·s"},
      {"measurement": "viscosity", "setting": "303.15 K, m1 = 0.4001", "result": "0.926 ± 0.02", "unit": "mPa·s"},
      {"measurement": "mass density", "setting": "303.15 K, m1 = 0.0999", "result": "1001.56 ± 1", "unit": "kg/m3"},
      {"measurement": "mass density", "setting": "303.15 K, m1 = 0.1", "result": "1001.57 ± 1", "unit": "kg/m3"},
      {"measurement": "mass density", "setting": "303.15 K, m1 = 0.1008", "result": "1001.61 ± 1", "unit": "kg/m3"},
      {"measurement": "mass density", "setting": "303.15 K, m1 = 0.1992", "result": "1007.23 ± 1", "unit": "kg/m3"},
      {"measurement": "mass density", "setting": "303.15 K, m1 = 0.2016", "result": "1007.34 ± 1", "unit": "kg/m3"},
      {"measurement": "mass density", "setting": "303.15 K, m1 = 0.2025", "result": "1007.42 ± 1", "unit": "kg/m3"},
      {"measurement": "mass density", "setting": "303.15 K, m1 = 0.3", "result": "1012.81 ± 1", "unit": "kg/m3"},
      {"measurement": "mass density", "setting": "303.15 K, m1 = 0.3014", "result": "1012.88 ± 1", "unit": "kg/m3"},
      {"measurement": "mass density", "setting": "303.15 K, m1 = 0.3999", "result": "1018.15 ± 1", "unit": "kg/m3"},
      {"measurement": "mass density", "setting": "303.15 K, m1 = 0.4001", "result": "1018.19 ± 1", "unit": "kg/m3"},
      {"measurement": "viscosity", "setting": "313.15 K, m1 = 0.0999", "result": "0.678 ± 0.014", "unit": "mPa·s"},
      {"measurement": "viscosity", "setting": "313.15 K, m1 = 0.1", "result": "0.679 ± 0.014", "unit": "mPa·s"},
      {"measurement": "viscosity", "setting": "313.15 K, m1 = 0.1008", "result": "0.679 ± 0.014", "unit": "mPa·s"},
      {"measurement": "viscosity", "setting": "313.15 K, m1 = 0.1992", "result": "0.703 ± 0.015", "unit": "mPa·s"},
      {"measurement": "viscosity", "setting": "313.15 K, m1 = 0.2016", "result": "0.704 ± 0.015 mPa·s and 0.703 ± 0.015 mPa·s"},
      {"measurement": "viscosity", "setting": "313.15 K, m1 = 0.2025", "result": "0.704 ± 0.015", "unit": "mPa·s"},
      {"measurement": "viscosity", "setting": "313.15 K, m1 = 0.3", "result": "0.729 ± 0.015", "unit": "mPa·s"},
      {"measurement": "viscosity", "setting": "313.15 K, m1 = 0.3014", "result": "0.729 ± 0.015", "unit": "mPa·s"},
      {"measurement": "viscosity", "setting": "313.15 K, m1 = 0.3999", "result": "0.755 ± 0.016", "unit": "mPa·s"},
      {"measurement": "viscosity", "setting": "313.15 K, m1 = 0.4001", "result": "0.755 ± 0.016", "unit": "mPa·s"},
      {"measurement": "mass density", "setting": "313.15 K, m1 = 0.0999", "result": "998.03 ± 1", "unit": "kg/m3"},
      {"measurement": "mass density", "setting": "313.15 K, m1 = 0.1", "result": "998.04 ± 1", "unit": "kg/m3"},
      {"measurement": "mass density", "setting": "313.15 K, m1 = 0.1008", "result": "998.1 ± 1", "unit": "kg/m3"},
      {"measurement": "mass density", "setting": "313.15 K, m1 = 0.1992", "result": "1003.65 ± 1", "unit": "kg/m3"},
      {"measurement": "mass density", "setting": "313.15 K, m1 = 0.2016", "result": "1003.75 ± 1 kg/m3 and 1003.74 ± 1 kg/m3"},
      {"measurement": "mass density", "setting": "313.15 K, m1 = 0.2025", "result": "1003.85 ± 1", "unit": "kg/m3"},
      {"measurement": "mass density", "setting": "313.15 K, m1 = 0.3", "result": "1009.15 ± 1", "unit": "kg/m3"},
      {"measurement": "mass density", "setting": "313.15 K, m1 = 0.3014", "result": "1009.21 ± 1", "unit": "kg/m3"},
      {"measurement": "mass density", "setting": "313.15 K, m1 = 0.3999", "result": "1014.45 ± 1", "unit": "kg/m3"},
      {"measurement": "mass density", "setting": "313.15 K, m1 = 0.4001", "result": "1014.46 ± 1", "unit": "kg/m3"},
      {"measurement": "viscosity", "setting": "323.15 K, m1 = 0.0999", "result": "0.568 ± 0.012", "unit": "mPa·s"},
      {"measurement": "viscosity", "setting": "323.15 K, m1 = 0.1", "result": "0.568 ± 0.012", "unit": "mPa·s"},
      {"measurement": "viscosity", "setting": "323.15 K, m1 = 0.1008", "result": "0.568 ± 0.012", "unit": "mPa·s"},
      {"measurement": "viscosity", "setting": "323.15 K, m1 = 0.1992", "result": "0.587 ± 0.012", "unit": "mPa·s"},
      {"measurement": "viscosity", "setting": "323.15 K, m1 = 0.2016", "result": "0.587 ± 0.012", "unit": "mPa·s"},
      {"measurement": "viscosity", "setting": "323.15 K, m1 = 0.2025", "result": "0.589 ± 0.013", "unit": "mPa·s"},
      {"measurement": "viscosity", "setting": "323.15 K, m1 = 0.3", "result": "0.608 ± 0.013", "unit": "mPa·s"},
      {"measurement": "viscosity", "setting": "323.15 K, m1 = 0.3014", "result": "0.609 ± 0.013", "unit": "mPa·s"},
      {"measurement": "viscosity", "setting": "323.15 K, m1 = 0.3999", "result": "0.629 ± 0.013", "unit": "mPa·s"},
      {"measurement": "viscosity", "setting": "323.15 K, m1 = 0.4001", "result": "0.629 ± 0.013", "unit": "mPa·s"},
      {"measurement": "mass density", "setting": "323.15 K, m1 = 0.0999", "result": "993.8 ± 1", "unit": "kg/m3"},
      {"measurement": "mass density", "setting": "323.15 K, m1 = 0.1", "result": "993.81 ± 1", "unit": "kg/m3"},
      {"measurement": "mass density", "setting": "323.15 K, m1 = 0.1008", "result": "993.86 ± 1", "unit": "kg/m3"},
      {"measurement": "mass density", "setting": "323.15 K, m1 = 0.1992", "result": "999.27 ± 1", "unit": "kg/m3"},
      {"measurement": "mass density", "setting": "323.15 K, m1 = 0.2016", "result": "999.43 ± 1", "unit": "kg/m3"},
      {"measurement": "mass density", "setting": "323.15 K, m1 = 0.2025", "result": "999.49 ± 1", "unit": "kg/m3"},
      {"measurement": "mass density", "setting": "323.15 K, m1 = 0.3", "result": "1004.74 ± 1", "unit": "kg/m3"},
      {"measurement": "mass density", "setting": "323.15 K, m1 = 0.3014", "result": "1004.83 ± 1", "unit": "kg/m3"},
      {"measurement": "mass density", "setting": "323.15 K, m1 = 0.3999", "result": "1010.01 ± 1", "unit": "kg/m3"},
      {"measurement": "mass density", "setting": "323.15 K, m1 = 0.4001", "result": "1010.02 ± 1", "unit": "kg/m3"}
    ]}
  ]
}
